We go through two molecules from US12629352B2, “Methods and uses for apelin receptor agonists” (RESEARCH TRIANGLE INSTITUTE, priority 2019, dated 2026).

This experiment deals with bleomycin-induced pulmonary fibrosis in male C57BL/6 mice. Put plainly: 21-day bleomycin-induced lung fibrosis model, prophylactic BID oral treatment. The experiment is classed as in vivo. Particulars: for Ashcroft score index: FIG. 15A, BID treatment; for absolute lung weights / absolute lung weights vs vehicle: day 21 post-bleomycin; for absolute lung weights: ±SEM, significantly lower than vehicle (p<0.05). On the procedure: Bleomycin is widely used to induce pulmonary fibrosis in rodents in order to study potential novel therapies for fibrosis. This study was designed to evaluate the prophylactic efficacy of test compound, Compound 1, also referred to as SRRM-423, in a 21-day model of bleomycin-induced pulmonary fibrosis in male C57BL/6 mice.
Prophylactic treatment of three different doses of 30 mg/kg, 15 mg/kg, and 7.5 mg/kg of Compound 1 was commenced a day before induction of disease and continued until the end of the study, namely 21 days after bleomycin administration. Treatment was administered twice daily via oral gavage.
Mice were administered bleomycin (Catalog number C-61703-323-22, lot number D011495AA, Hospira) via oropharyngeal route to induce lung fibrosis.
Bleomycin-induced animals were treated twice daily with either of the three different doses of test compound Compound 1 or pirfenidone starting from a day prior to disease induction and continued till study termination. Study animals were harvested on day 21 post-bleomycin administration. As an end point analysis, fibrosis symptoms such as body weight, absolute lung weight, lung weight normalized to body weight, and total leukocytes in BAL fluid were evaluated and compared with vehicle-treated mice.
On day 0, all mice in groups 2-6 received a 1.5 U/kg oropharyngeal administration of bleomycin to induce pulmonary fibrosis. Animals in group 1 were not administered bleomycin, but instead received a single dose of normal saline via the oropharyngeal route, and were considered sham control mice.
Dosing was initiated one day prior to induction of disease. Animals were dosed twice daily orally with Compound 1 and Pirfenidone and treatment was continued until 21 days after bleomycin administration. Animals from group 2 were treated with vehicle (0.5% methylcellulose). Animals in groups 3, 4 and 5 received Compound 1 at 30, 15, and 7.5 mg/kg respectively, and animals in group 6 received Pirfenidone 100 mg/kg.
Surviving animals were euthanized 21 days post bleomycin administration. Animals were weighed, then blood and lungs were collected. Blood was processed for plasma. Lungs, were weighed, flushed with HBSS for BAL collection, and fixed in 10% NBF. Supernatant from BAL fluid was frozen while the pellet was used for total leukocyte cell count.
In order to induce pulmonary fibrosis, mice in groups 2-6 were administered 1.5 U/kg bleomycin (Catalog number C-61703-323-22, lot number D011495AA, Hospira) in 70 μl via oropharyngeal administration. Animals from group 1 were administered 70 μl of saline by the oropharyngeal route, instead of bleomycin, and served as sham controls.
Compound 1 was provided as a trifluoroacetic acid (TFA) salt and requires a salt correction of 1.0654. All dose amounts were calculated as the free base content of the test article using the correction factor. Vehicle used for formulation of test compound, Compound 1, was 0.3% Tween 80 and 1% N-methylpyrollidinone in 0.5% aqueous methylcellulose. Vehicle and dosing formulation of Compound 1 was prepared fresh weekly. Dosing formulations and vehicles were stored at 4±2° C. protected from heat and light. The expiration date for the test article dosing solutions were set at 7 days after preparation. Pirfenidone was sourced from a vendor and formulated in the same vehicle as Compound 1, i.e., 0.3% Tween 80 and 1% N-methylpyrollidinone in 0.5% aqueous methylcellulose.
Animals were dosed twice daily with volume of 100 μl/dose by oral gavage from a day prior to disease induction and same treatment was continued till study termination, i.e., day 21 post bleomycin administration. Surviving animals were harvested within 2 to 4 hours post final dosing on day 21.
The lungs from each animal were harvested following Aragen's Standard Operating Procedure (WA-004-01). Each lung was dissected from the animal and weighed. The BAL fluid was collected by lavaging the lung twice with 0.5 ml Hanks Balanced Salt Solution (HBSS, VWR Radnor, PA). […]

Setting [1] is: lung histopathology, dose not specified.

SMILES strings stand for the structures.

Consider `O=C(O)C[C@H](CCN1CCCC(F)(F)C1)NC(=O)c1cc(-c2ccccc2C(F)(F)F)n(C2CCCC2)n1` [Compound 1, (3S)-3-({1-cyclopentyl-5-[2-(trifluoromethyl)phenyl]-1H-pyrazol-3-yl}formamido)-5-(3,3-difluoropiperidin-1-yl)pentanoic acid], for which the “fibrosis according to Ashcroft scores” value is “greatest reduction in fibrosis” (30 mg/kg BID, compared to induced controls and to 100 mg/kg Pirfenidone); “substantially less fibrosis” (15 or 7.5 mg/kg BID, compared to induced controls, similar to 100 mg/kg Pirfenidone BID). For the setting “30, 15 and 7.5 mg/kg BID, day 21, vs vehicle group 2, statistical significance not reached”, the “average total leukocyte count in BAL fluid” value was “reduced the average leukocyte count in BAL fluid in all test groups”. Further, the “α-SMA positive lung tissue as a percent of the total lung parenchyma” value (>7.5 mg/kg, FIG. 15B, compared to induced controls, no clear relationship to the dose) is recorded as “substantially less α-SMA positive lung tissue”. The Ashcroft score index entry under setting [1] is “reduced Ashcroft score index”. Also, the “Ashcroft score of lung section (Masson's trichome staining)” value (FIG. 16, 30 mg mpk + bleomycin, bleomycin/no treatment similar to score 5) was around 2. In addition, for the setting “FIG. 17, 30 mpk + bleomycin, compared to induced controls”, the “α-SMA positive staining of lung section” value is “substantially less compared to induced controls”. Also, the absolute lung weights was determined as 310 mg (group 3, 30 mg/kg BID oral gavage) and 313 mg (group 5, 7.5 mg/kg BID oral gavage). For the same molecule, for the setting “group 4, 15 mg/kg BID oral gavage”, the “absolute lung weights vs vehicle” value is reported as “Statistical significance was not reached”. Also, the body weight entry (group 4, 15 mg/kg BID, recorded three times a week to day 21) is “lost more weight compared to other groups”. Moreover, the “fibrosis symptoms (body weight, lung weight, lung weight index, total leukocyte counts, myofibroblast proliferation)” value (highest dose of 30 mg/kg BID) was “significantly ameliorated fibrosis symptoms”. Besides, the “proliferation of activated myofibroblasts (antibody to α-SMA)” value under setting [1] is “reduced proliferation of activated myofibroblasts”. Also, the “absolute and normalized lung weights” value (prophylactic BID treatment, doses not distinguished) was “reduced absolute and normalized lung weights”.
In the case of `Cc1ccc(=O)n(-c2ccccc2)c1` [Pirfenidone, reference compound], under setting [1], the Ashcroft score index entry is reported as “reduced Ashcroft score index”. Moreover, where the note is “group 6, 100 mg/kg BID oral gavage”, the “absolute lung weights vs vehicle” value is listed as “Statistical significance was not reached”.
